Test results from publication PMC9090415, “Discovery of small molecule inhibitors of Plasmodium falciparum apicoplast DNA polymerase” (Journal of Enzyme Inhibition and Medicinal Chemistry, 2022).
Where two headings read alike, the source gives them in different places.

Target: P. falciparum apicoplast DNA polymerase (Pf-apPOL) (Plasmodium falciparum, UniProt Q8ILY1)
Assay: Fluorescence-based high-throughput DNA polymerase assay (molecular beacon), primary screen and dose-response
Assay type: biochemical
Conditions: for DNA Pol: 90 min, 10 µM; for % inhibition apPOL 180' 2.5 / % inhibition apPOL 180' 5 / % inhibition apPOL 180' 10 / % inhibition apPOL 180' 20 / % inhibition apPOL 180' 40 / % inhibition apPOL 180' 80: read at 180'
Method in brief: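 Single-point screening used 10 µM compound with 20 nM polymerase, 20 nM hairpin substrate and 6 µM dNTPs for 90 min at 25 °C. Confirmatory titrations (2.5–80 µM) followed fluorescence at three times, and IC50 was derived from a fit including a cooperativity term n.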

Chain of P. falciparum apicoplast DNA polymerase (Pf-apPOL) (Q8ILY1 entry or part of it): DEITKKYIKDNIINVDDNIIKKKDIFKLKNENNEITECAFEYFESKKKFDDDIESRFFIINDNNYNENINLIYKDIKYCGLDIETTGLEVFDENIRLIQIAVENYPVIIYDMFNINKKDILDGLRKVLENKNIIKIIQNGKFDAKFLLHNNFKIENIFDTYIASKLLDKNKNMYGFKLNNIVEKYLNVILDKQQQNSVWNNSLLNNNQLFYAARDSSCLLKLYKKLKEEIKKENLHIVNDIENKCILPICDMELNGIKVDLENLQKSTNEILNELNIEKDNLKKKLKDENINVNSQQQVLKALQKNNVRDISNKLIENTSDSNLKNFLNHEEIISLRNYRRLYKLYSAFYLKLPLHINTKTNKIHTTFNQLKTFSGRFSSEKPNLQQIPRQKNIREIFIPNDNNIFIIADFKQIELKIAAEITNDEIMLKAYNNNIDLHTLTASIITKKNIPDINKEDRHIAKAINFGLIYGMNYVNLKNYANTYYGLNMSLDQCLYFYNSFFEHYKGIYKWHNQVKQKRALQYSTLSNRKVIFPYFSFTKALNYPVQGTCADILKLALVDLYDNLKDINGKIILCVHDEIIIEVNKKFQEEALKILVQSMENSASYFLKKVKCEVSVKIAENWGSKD

N#Cc1c(O)nc(N2CCCCC2)nc1-c1ccc2c(c1)OCO2 [KU0083146]
DNA Pol (186 hits, DNA Pol (screen value), unit not given): 49 | DNA Pol ('DNA Pol' (screen value), unit not given): 49 | % inhibition Apo pol 10' 2.5 (DRC-1, read at 10', concentration 2.5): 13.1271% | % inhibition Apo pol 10' 5 (DRC-1, read at 10', concentration 5): 26.6749% | % inhibition Apo pol 10' 10 (DRC-1, read at 10', concentration 10): 53.7038% | % inhibition Apo pol 10' 20 (DRC-1, read at 10', concentration 20): 55.5357% | % inhibition Apo pol 10' 40 (DRC-1, read at 10', concentration 40): 66.277% | % inhibition Apo pol 10' 80 (DRC-1, read at 10', concentration 80): 78.8965% | % inhibition Apol 90' 2.5 (DRC-1, read at 90', concentration 2.5): 5.9065% | % inhibition Apol 90' 5 (DRC-1, read at 90', concentration 5): 16.8272% | % inhibition Apol 90' 10 (DRC-1, read at 90', concentration 10): 42.1383% | % inhibition Apol 90' 20 (DRC-1, read at 90', concentration 20): 45.0693% | % inhibition Apol 90' 40 (DRC-1, read at 90', concentration 40): 57.8585% | % inhibition Apol 90' 80 (DRC-1, read at 90', concentration 80): 71.163% | % inhibition apPOL 180' 2.5 (DRC-1, concentration 2.5): -1.148% | % inhibition apPOL 180' 5 (DRC-1, concentration 5): 6.188% | % inhibition apPOL 180' 10 (DRC-1, concentration 10): 30.2008% | % inhibition apPOL 180' 20 (DRC-1, concentration 20): 34.0367% | % inhibition apPOL 180' 40 (DRC-1, concentration 40): 46.9072% | % inhibition apPOL 180' 80 (DRC-1, concentration 80): 62.3261% | % inhibition Apo pol 5' (DRC-2, concentration 2.5): 13% | % inhibition Apo pol 5' (DRC-2, concentration 10): 33% | % inhibition Apo pol 5' (DRC-2, concentration 40): 53% | % inhibition Apol 40' (DRC-2, concentration 2.5): 13% | % inhibition Apol 40' (DRC-2, concentration 10): 33% | % inhibition apPOL 180' (DRC-2, concentration 40): 53% | % inhibition Apo pol 5' 2.5 (DRC-2, read at 5', concentration 2.5): 13% | % inhibition Apo pol 5' 5 (DRC-2, read at 5', concentration 5): 27% | % inhibition Apo pol 5' 10 (DRC-2, read at 5', concentration 10): 33% | % inhibition Apo pol 5' 20 (DRC-2, read at 5', concentration 20): 44% | % inhibition Apo pol 5' 40 (DRC-2, read at 5', concentration 40): 53% | % inhibition Apo pol 5' 80 (DRC-2, read at 5', concentration 80): 57% | % inhibition Apol 40' 2.5 (DRC-2, read at 40', concentration 2.5): 13% | % inhibition Apol 40' 5 (DRC-2, read at 40', concentration 5): 28% | % inhibition Apol 40' 10 (DRC-2, read at 40', concentration 10): 33% | % inhibition Apol 40' 20 (DRC-2, read at 40', concentration 20): 49% | % inhibition Apol 40' 40 (DRC-2, read at 40', concentration 40): 60% | % inhibition Apol 40' 80 (DRC-2, read at 40', concentration 80): 65% | % inhibition ApPOL 90' 2.5 (DRC-2, read at 90', concentration 2.5): 11% | % inhibition ApPOL 90' 5 (DRC-2, read at 90', concentration 5): 26% | % inhibition ApPOL 90' 10 (DRC-2, read at 90', concentration 10): 31% | % inhibition ApPOL 90' 20 (DRC-2, read at 90', concentration 20): 47% | % inhibition ApPOL 90' 40 (DRC-2, read at 90', concentration 40): 59% | % inhibition ApPOL 90' 80 (DRC-2, read at 90', concentration 80): 66% | % inhibition apPOL 180' 2.5 (DRC-2, concentration 2.5): 5.4% | % inhibition apPOL 180' 5 (DRC-2, concentration 5): 17% | % inhibition apPOL 180' 10 (DRC-2, concentration 10): 23% | % inhibition apPOL 180' 20 (DRC-2, concentration 20): 40% | % inhibition apPOL 180' 40 (DRC-2, concentration 40): 53% | % inhibition apPOL 180' 80 (DRC-2, concentration 80): 61%

Cc1ccc(C)n1-c1ccc(C(=O)NNC(=O)c2ccc3nccnc3c2)cc1 [Molecule 53, O=C(c1ccc(cc1)n1c(C)ccc1C)NNC(=O)c1ccc2c(c1)nccn2]
DNA Pol ("DNA Pol" of the 186 hits list (screen value)): 84 | % inhibition Apo pol 10' (DRC-1, concentration 2.5): 0.1394% | % inhibition Apo pol 10' (DRC-1, concentration 5): 8.124% | % inhibition Apo pol 10' (DRC-1, concentration 10): 19.7971% | % inhibition Apo pol 10' (DRC-1, concentration 20): 46.3145% | % inhibition Apo pol 10' (DRC-1, concentration 40): 80.1476% | % inhibition Apo pol 10' (DRC-1, concentration 80): 83.7947% | % inhibition Apol 90' (DRC-1, concentration 2.5): -3.841% | % inhibition Apol 90' (DRC-1, concentration 5): -1.933% | % inhibition Apol 90' (DRC-1, concentration 10): 7.019% | % inhibition Apol 90' (DRC-1, concentration 20): 31.5983% | % inhibition Apol 90' (DRC-1, concentration 40): 69.8424% | % inhibition Apol 90' (DRC-1, concentration 80): 79.5478% | % inhibition apPOL 180' (DRC-1, concentration 2.5): -5.424% | % inhibition apPOL 180' (DRC-1, concentration 5): -7.03% | % inhibition apPOL 180' (DRC-1, concentration 10): 0.2997% | % inhibition apPOL 180' (DRC-1, concentration 20): 17.1559% | % inhibition apPOL 180' (DRC-1, concentration 40): 57.2023% | % inhibition apPOL 180' (DRC-1, concentration 80): 72.0846% | % inhibition Apo pol 5' (DRC-2, concentration 2.5): 0% | % inhibition Apo pol 5' (DRC-2, concentration 5): 1.67% | % inhibition Apo pol 5' (DRC-2, concentration 10): 25% | % inhibition Apo pol 5' (DRC-2, concentration 20): 46% | % inhibition Apo pol 5' (DRC-2, concentration 40): 55% | % inhibition Apo pol 5' (DRC-2, concentration 80): 57% | % inhibition Apol 40' (DRC-2, concentration 2.5): 3.18% | % inhibition Apol 40' (DRC-2, concentration 5): 2% | % inhibition Apol 40' (DRC-2, concentration 10): 23% | % inhibition Apol 40' (DRC-2, concentration 20): 50% | % inhibition Apol 40' (DRC-2, concentration 40): 64% | % inhibition Apol 40' (DRC-2, concentration 80): 72% | % inhibition ApPOL 90' (DRC-2, concentration 2.5): 0.241% | % inhibition ApPOL 90' (DRC-2, concentration 5): 1.15% | % inhibition ApPOL 90' (DRC-2, concentration 10): 18% | % inhibition ApPOL 90' (DRC-2, concentration 20): 47% | % inhibition ApPOL 90' (DRC-2, concentration 40): 64% | % inhibition ApPOL 90' (DRC-2, concentration 80): 74% | % inhibition apPOL 180' (DRC-2, concentration 2.5): -1.53% | % inhibition apPOL 180' (DRC-2, concentration 5): -2.77% | % inhibition apPOL 180' (DRC-2, concentration 10): 10% | % inhibition apPOL 180' (DRC-2, concentration 20): 37% | % inhibition apPOL 180' (DRC-2, concentration 40): 56% | % inhibition apPOL 180' (DRC-2, concentration 80): 73% | DNA Pol (primary screen value, DNA Pol): 84

O=C(O)c1ccc(-c2nc3cc(-c4ccc5nc(-c6ccc(C(=O)O)cc6)[nH]c5c4)ccc3[nH]2)cc1 [Molecule 1]
IC50 (read-out: IC50 Pf-apPOL, Table 2): 5.9 ± 0.9 µM | IC50 (supplemental file 2, sheet IC50 nontoxic compounds, Pf-apPOL): 5.92 µM

O=C(NNC(=O)c1ccc(Cl)cc1)C(=O)NNC(=O)c1ccc(Cl)cc1 [Molecule 25, O=C(C(=O)NNC(=O)c1ccc(cc1)Cl)NNC(=O)c1ccc(cc1)Cl]
DNA Pol ('DNA Pol' of the 186 hits list (primary screen value)): 75 | DNA Pol (DNA Pol (primary screen value)): 75 | % inhibition Apo pol 10' (DRC-1, concentration 2.5): 0.1123% | % inhibition Apo pol 10' (DRC-1, concentration 5): 29.8674% | % inhibition Apo pol 10' (DRC-1, concentration 10): 53.2072% | % inhibition Apo pol 10' (DRC-1, concentration 20): 61.5061% | % inhibition Apo pol 10' (DRC-1, concentration 40): 64.1413% | % inhibition Apo pol 10' (DRC-1, concentration 80): 75.0048% | % inhibition Apol 90' (DRC-1, concentration 2.5): -1.798% | % inhibition Apol 90' (DRC-1, concentration 5): 28.7698% | % inhibition Apol 90' (DRC-1, concentration 10): 48.8169% | % inhibition Apol 90' (DRC-1, concentration 20): 54.9619% | % inhibition Apol 90' (DRC-1, concentration 40): 57.5316% | % inhibition Apol 90' (DRC-1, concentration 80): 69.6376% | % inhibition apPOL 180' (DRC-1, concentration 2.5): -4.906% | % inhibition apPOL 180' (DRC-1, concentration 5): 25.5591% | % inhibition apPOL 180' (DRC-1, concentration 10): 45.9729% | % inhibition apPOL 180' (DRC-1, concentration 20): 50.6657% | % inhibition apPOL 180' (DRC-1, concentration 40): 53.135% | % inhibition apPOL 180' (DRC-1, concentration 80): 64.4119% | % inhibition Apo pol 5' (DRC-2, concentration 2.5): 2.6% | % inhibition Apo pol 5' (DRC-2, concentration 5): 10% | % inhibition Apo pol 5' (DRC-2, concentration 10): 29% | % inhibition Apo pol 5' (DRC-2, concentration 20): 45% | % inhibition Apo pol 5' (DRC-2, concentration 40): 49% | % inhibition Apo pol 5' (DRC-2, concentration 80): 51% | % inhibition Apol 40' (DRC-2, concentration 2.5): 2% | % inhibition Apol 40' (DRC-2, concentration 5): 13% | % inhibition Apol 40' (DRC-2, concentration 10): 35% | % inhibition Apol 40' (DRC-2, concentration 20): 54% | % inhibition Apol 40' (DRC-2, concentration 40): 58% | % inhibition Apol 40' (DRC-2, concentration 80): 62% | % inhibition ApPOL 90' (DRC-2, concentration 2.5): 0.656% | % inhibition ApPOL 90' (DRC-2, concentration 5): 13% | % inhibition ApPOL 90' (DRC-2, concentration 10): 36% | % inhibition ApPOL 90' (DRC-2, concentration 20): 54% | % inhibition ApPOL 90' (DRC-2, concentration 40): 60% | % inhibition ApPOL 90' (DRC-2, concentration 80): 64% | % inhibition apPOL 180' (DRC-2, concentration 2.5): -2.65% | % inhibition apPOL 180' (DRC-2, concentration 5): 7.39% | % inhibition apPOL 180' (DRC-2, concentration 10): 30% | % inhibition apPOL 180' (DRC-2, concentration 20): 48% | % inhibition apPOL 180' (DRC-2, concentration 40): 55% | % inhibition apPOL 180' (DRC-2, concentration 80): 62%
